{"source": "patent US7998682B2", "about": "“Method for assessing atherosclerosis by measuring expression of FOS or DUSP1 in monocytes” (The United States of America as represented by the …, priority 2004, dated 2011)", "key": {"[1]": {"test_system": "DUSP1", "assay": "RT-PCR of DUSP1 in human monocytic cell lines stimulated with PMA", "type": "cell-based", "conditions": "five human monocytic cell lines, 20 nM PMA"}, "[2]": {"test_system": "FOS", "assay": "RT-PCR of FOS in human monocytic cell lines stimulated with PMA", "type": "cell-based", "conditions": "five human monocytic cell lines, 20 nM PMA", "description": "FIGS. 2A-2D are digital images and graphs showing expression of FOS in human carotid plaque macrophages and in activated human monocytic cells and ApoE KO mouse splenocytes. FIG. 2A is a digital image of fresh frozen sections of human carotid artery plaques stained with hematoxylin and eosin (H&E), negative control immunoglobulin (Control Ig) and antibodies against CD14 or FOS. CD14+ staining of macrophages colocalizes with FOS immunoreactivity (25× magnification). Note that the CD14 staining gives a more diffuse appearance consistent with cell surface plasma membrance staining while the FOS pattern is more punctate consistent with nuclear localization. For the digital image shown as FIG. 2B, from four patients, the corresponding mononuclear cell (MNC), circulating monocyte (Mono) and carotid plaque purified macrophage (Mac) preparations were used for quantitative RT-PCR. The normalized expression levels shown were obtained as described in FIG. 1A. Note the progressively higher pattern of candidate gene expression associated with increasing concentration of monocytes and activation into macrophages. […] Values expressed as mean±SE, P=0.04. […]\nQuantitative real-time RT-PCR: mRNA from lystates (10^5 cells) were purified by binding to poly(dT) magnetic beads (Dynal Biotech Inc. Brown Deer, Wis.) and reverse transcribed using Superscript II (Invitrogen, Carlsbad, Calif.). […]"}, "[3]": {"test_system": "FOS protein", "assay": "FOS protein level by Western blot in PMA-stimulated THP1 cells", "type": "cell-based, human", "conditions": "1 mM mevalonate added with simvastatin, 20 hours before PMA"}, "[4]": {"test_system": "MCP-1", "assay": "Cumulative MCP-1 release into medium by PMA-stimulated THP1 cells (immunoassay)", "type": "cell-based, human", "procedure": "(§1) FIGS. 3A-3B are digital images and graphs showing the functional effects of statin and FOS siRNA inhibition on monocyte activation by PMA. FIG. 3A is a bar graph and a digital image wherein THP1 cells were pretreated with simvastatin and/or mevalonate for 20 hours prior to stimulation with 2 nM PMA. Cell adhesion was determined 4 hours after PMA stimulation; cumulative MCP-1 release into medium was assayed 24 hours after PMA stimulation. […] P values for the difference in cell adhesion and MCP-1 release after statin treatment were 0.004 and 0.04, respectively. FIG. 3B is a bar graph and a digital image wherein THP1 cells were stimulated with 2 nM PMA 30 minutes after siRNA transfection for 4 hours. Control (−) cells were mock transfected without siRNA as a transfection control. […]\n(§2) Monocyte function: For pretreatment experiments, cells were incubated with 10 μM simvastatin and/or 1 mM mevalonate for 20 hours prior to stimulation with phorbol 12-myristate 13-acetate (PMA, Sigma, St. Louis, Mo.). Cell adhesion was determined by gently washing off the nonadherent cells twice and pooling them. […] Viable nonadherent and adherent cells were counted using Trypan Blue dye. Cumulative MCP-1 release into the medium was determined using the MCP-1 immunoassay kit (R& D Systems, Minneapolis, Minn.) after 24 hours PMA stimulation."}, "[5]": {"test_system": "THP1 cells", "assay": "Monocyte adhesion of PMA-stimulated THP1 cells to plastic substratum", "type": "cell-based, human", "procedure": "as §1, §2"}, "[6]": {"conditions": "1 mM mevalonate in medium with simvastatin, 20 hours before PMA"}}, "data": [{"molecule": "CCCCCCCCCCCCCC(=O)O[C@@H]1[C@@H](C)[C@@]2(O)[C@@H](C=C(CO)C[C@]3(O)C(=O)C(C)=C[C@@H]23)[C@@H]2C(C)(C)[C@]12OC(C)=O", "note": "[PMA, phorbol 12-myristate 13-acetate]", "values": [{"measurement": "DUSP1 expression after PMA stimulation", "setting": "[1]", "result": "repressed in two of the cell lines"}, {"measurement": "FOS expression after PMA stimulation", "setting": "[2]", "result": "uniformly induced in all five cell lines"}]}, {"molecule": "CC(O)(CCO)CC(=O)O", "note": "(stereo not shown) [mevalonate]", "values": [{"measurement": "effect on statin-induced reduction in FOS protein", "setting": "[3]", "result": "reversed"}, {"measurement": "effect on statin-induced reduction in MCP-1 release", "setting": "[4]; [6]", "result": "specifically reversed"}, {"measurement": "effect on statin-induced reduction in monocyte adhesion", "setting": "[5]; [6]", "result": "specifically reversed"}]}, {"molecule": "CCC(C)(C)C(=O)O[C@H]1C[C@@H](C)C=C2C=C[C@H](C)[C@H](CC[C@@H]3C[C@@H](O)CC(=O)O3)[C@H]21", "note": "[statins, simvastatin]", "values": [{"measurement": "reduction in MCP-1 release into medium compared to control", "setting": "[4]; 10 μM simvastatin pretreatment 20 hours, 2 nM PMA, 24 hours after PMA, P=0.04", "result": "approximately 70%"}, {"measurement": "reduction in monocyte adhesion to plastic substratum compared to control", "setting": "[5]; 10 μM simvastatin pretreatment 20 hours, 2 nM PMA, 4 hours after PMA, P=0.004", "result": "approximately 70%"}]}]}
